Source: patent publication US9669016B2, “Antiparasitic effect of Bis[3,5-Bis(Benzylidene)-4-Oxo-1-Piperidinyl]amide Derivatives” (priority 2014, dated 2017)

How the values were obtained:
[1] = tested on: L. major metacyclic promastigotes; test: Murine model for cutaneous leishmaniasis (footpad infection); assay type: in vivo, BALB/c mice; conditions: 10^5 L. major metacyclic promastigotes, intraperitoneal daily treatment
Description: (§1) The in vivo experiments were comprised of four groups of five mice each: (1) infected, but not treated [control for the infection—100 μL of DMSO per day, drug diluent]; (2) treated with NC884, NC901 or NC2459, but not infected with the parasites [control for drug toxicity]; (3) infected with the parasites and treated with amphotericin B (8 mg/kg/day) [reference drug; positive control]; and (4) infected with the parasites and treated with NC884, NC901 or NC2459 [experimental group]. Luciferase expressing metacyclic promastigotes L. major (Freidlin V1) were obtained as described previously. Suspensions of 1×10^5 or 1×10^6 parasites per 50 μl of sterile DMEM (endotoxin-free) were injected with a 30G needle into the left hind footpad of BALB/c mice. Two weeks post-infection the compounds were administered once a day by intraperitoneal route, daily for 14 to 17 days. Twice a week, weights were recorded to monitor toxicity and the thickness of the infected footpad and the non-infected footpad was measured with digital calipers to monitor the progression of the disease. The parasitic load also was evaluated through in vivo imaging using luminescence (Kodak Image Station). The mice were injected intra-peritoneally with 150 mg/kg D-luciferin (Sigma, USA) 10 min before imaging, anesthetized with 1-2% isofluorane in oxygen during imaging and the net intensity emitted from the footpad was quantified using the KODAK Image Station software. Parasite burden was expressed as net intensity emitted from L. major infected footpad lesions normalized against the background fluorescence of uninfected mice. The presence/absence of parasites was confirmed by PCR using L. major methionine aminopeptidase (MetAP1) 1 specific primers: 5′-[…]-3′ (SEQ ID NO:1) and 5′-[…]-3′ (SEQ ID NO:2) on cDNA reverse transcribed from total RNA extracted from footpad lysate obtained by macerating footpad tissue fragments in Trizol (Invitrogen Life Technologies, United States) with the gentleMACS™ Dissociator (Miltenyi Biotec GmbH, Germany) following the manufacturer's protocol.

[2] = Weight and toxicity monitoring in treated infected mice; assay type: in vivo, BALB/c mice; conditions: 10^5 infection experiment, daily IP treatment
Description: as §1

Structure (SMILES): C[C@@H]1[C@H](O)[C@@H](C)/C=C/C=C/C=C/C=C/C=C/C=C/C=C/[C@H](O[C@@H]2O[C@H](C)[C@@H](O)[C@H](N)[C@@H]2O)C[C@@H]2O[C@](O)(C[C@@H](O)C[C@@H](O)[C@H](O)CC[C@@H](O)C[C@@H](O)CC(=O)O[C@H]1C)C[C@H](O)[C@H]2C(=O)O [amphotericin B, reference compound]
- footpad swelling [1]: reduced footpad swelling
- weight loss [2]: much more dramatic loss in weight
